One data set has as its system measles. Put plainly: Measles virus inhibition of viral CPE in BSC-1 cells. Format: cell-based. As to conditions: for EC50: Table II footnote g, read-out: Others EC50, against measles.
In the next data set the test system is 2.2.15 cells. Nature of the data set: Toxicity in 2.2.15 cells, neutral red dye uptake. Format: cell-based, human. As to conditions: Table II, read-out: HBV IC50. As for the experimental part: Cells of 2.2.15 were grown to confluence in 96-well flat-bottomed tissue culture plates and treated with compounds (in 0.2 mL culture medium/well) as described above. Four concentrations of each compound were assayed, each in triplicate cultures, in 3- to 10-fold steps. Untreated control cultures were maintained on each 96-well plate. On each 96-well plate, wells containing no cells were used to correct for light scattering.

Another data set deals with CEM-SS cells. Nature of the data set: CEM-SS MTT assay, cytotoxicity (Table I). Format: cell-based, human.
The next data set deals with HBV. Nature of the data set: HBV replication in cultures of 2.2.15 cells, extracellular HBV virion DNA (primary assay). As to conditions: for EC50: read-out: HBV EC50.
For a further data set, the system named is HCMV. Nature of the data set: HCMV semi-automated CPE-inhibition assay in human foreskin fibroblast cells. Format: cell-based, human cytomegalovirus.
The subject of another data set is EBV. Nature of the data set: EBV assay: superinfection of Raji or Daudi cells with P3HR-1, immunofluorescence for EA and VCA. It counts as cell-based, Epstein-Barr virus. In short, it runs like this: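 Raji cells (Burkitt's lymphoma, 60 EBV genomes/cell) or Daudi cells were superinfected with P3HR-1 EBV, and drugs were added after 45 min adsorption at 37 °C and washing. After 48 h, smears were stained with monoclonal antibodies to EA components and VCA plus fluorescein anti-mouse Ig. Fluorescence-positive cells were counted to give total EA- or VCA-positive cells per culture.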

For data set [1], the system named is human foreskin fibroblast cells. Put plainly: Toxicity run with the VZV assay, human foreskin fibroblast cells. As to conditions: Table II. Format: cell-based. The essentials:
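Human foreskin fibroblasts exposed to drug at 37 °C in CO2, either 72 h followed by Coulter Counter counts (triplicate counts, three replicate wells), or seven days followed by dye staining for 1 h and optical density at 550 nm.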

In the next data set the test system is VZV. Put plainly: VZV plaque reduction assay in human foreskin fibroblast cells. Format: cell-based, varicella zoster virus. The following applies: Table II. The essentials: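 VZV at 20-30 plaques/well adsorbed 1 h onto HFF monolayers, then 0.5% agarose overlay holding drug at final 100 down to 0.03 μg/mL (1:5 steps), duplicates. Incubation 10 days, extra MEM/agarose overlay on days 3 and 6; neutral red staining, plaques counted.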
On the technique in general: Plaques are areas of infected cells; plaque reduction assays count them against a control.

Data set [2] deals with human foreskin fibroblast cells. Nature of the data set: Cell viability in the CMV plaque reduction assay (MTC). Format: cell-based. From the text:
Five calanolide analogues, prepared as described above, were further evaluated for their anti-HCMV activity in plaque reduction assay against various laboratory and clinical isolates (Towne, AD 169, E. Mann, Coffinan, and C9208).

The values that follow come from patent US20020013478A1, “Calanolide analogues and methods of their use” (Sarawak Medichem Pharmaceuticals,Inc., priority 1994, published 2002).

Converted amounts (≈) assume the structure as drawn. Like-named read-outs stand apart in the source and are kept apart here.

Description for HBV: Both intracellular and extracellular HBV DNA are analyzed in order to (i) allow for verification of compound efficacy and (ii) provide possible data on the target site in the HBV replication pathway for the compound from examination of the pattern of viral replicative forms. The culture medium is changed daily during the treatment period to (i) prevent the buildup of potentially toxic metabolites derived from test compounds and (ii) provide an analysis of HBV virion production during discrete 24-hour intervals which enables a quantitative comparison of any effect on virion production.
The analysis of HBV DNA is performed using blot hybridization techniques (Southern and slot blot) and [^32P]-labeled HBV-specific probes. HBV DNA levels are measured by comparison to known amounts of HBV DNA standards applied to every nitrocellulose membrane (gel or slot blot). An AMBIS beta scanner, which measures the radioactive decay of the hybridized probes directly from the nitrocellulose membranes, is used for the quantitative analysis. Standard curves, generated by multiple analyses, are used to correlate CPM measurements made by the beta scanner with relative levels of target HBV DNA. The levels of HBV virion DNA released into the culture medium are analyzed by a slot blot hybridization procedure.

As usually defined, the EC50 is the concentration giving half of the maximal effect. By IC50 is commonly meant the midpoint of a concentration-inhibition curve. Consider `CCCc1cc(=O)oc2c3c(c4c(c12)OC(C)(C)C=C4)OC(C)C(C)C3=O` (racemic) [(±)-7a], for which the results for the EC50 in the data set with measles and in the data set on HBV (Table II) were 13.7 µM and 44 µM, respectively. For the same compound, the IC50 with 2.2.15 cells came out at 32 µM; in the data set with CEM-SS cells, 12 µM. In the data set with HCMV (Table II), the “HCMV EC50” value worked out at 0.15 µg/mL. Besides, the “EBV EC50” value in the data set on EBV (Table II) is greater than 50 µg/mL. Also, the “VZV IC50” value in data set [1] came to 33.3 µg/mL. The “VZV EC50” value in the data set on VZV amounted to 13.7 µg/mL. Further, the “MTC (minimum drug concentration that reduced cell viability by 25%)” value in [2] came to 10 µM.

For the compound `CCCc1cc(=O)oc2c3c(c4c(c12)OC(C)(C)C=C4)O[C@H](C)[C@@H](C)C3=O` [(+)-7, 10(R),11(R)-trans-Dihydro6,6,10,11-tetramethyl-4-propyl-2H,6H,12H-benzo [1,2-b:3,4-b′:5,6-b″]tripyran-2,12-dione], the EC50 in the data set with measles (Measles morbillivirus, BSC-1) was 3 µM; in the data set with HBV (Hepatitis B virus), 7.2 µM; in the data set with HCMV (Human betaherpesvirus 5, Fibroblast, Table II), 0.11 µg/mL (≈ 0.299 µM); in the data set with EBV (human gammaherpesvirus 4, Table II), 0.94 µg/mL (≈ 2.55 µM); in the data set on VZV (Human alphaherpesvirus 3, Fibroblast), 55.9 µg/mL (≈ 152 µM). Further, in the data set with measles (text summary of Table II), the potency against measles entry is listed as “potent”. In addition, the 50% inhibitory concentration (IC50) was 57 µM with 2.2.15 cells (Homo sapiens); 72.8 µM in the data set with CEM-SS cells (Homo sapiens); greater than 100 µg/mL in [1] (Homo sapiens, Fibroblast). In the data set with HBV (text summary of Table II), the “potency against HBV” value is listed as “potent”. Also, in the data set on HCMV (text summary of Table II), the “potency against HCMV” value is “very potent”. Besides, the “potency against EBV” value with EBV (text summary of Table II) is on record as “very potent”. Also, the “MTC (minimum drug concentration that reduced cell viability by 25%)” value was 100 µM in data set [2] (isolate AD169); greater than 100 µM in data set [2] (isolate C9208); greater than 100 µM in data set [2] (isolate Coffman); 100 µM in data set [2] (isolate E. Mann); greater than 100 µM in data set [2] (isolate Towne).
